Results published in ChEMBL document CHEMBL1132498, “Increased antiviral activity of cyclic urea HIV protease inhibitors by modifying the P1/P1' substituents” (Bioorg Med Chem Lett, 1999).

What was measured:
[1] = molecular target: Human immunodeficiency virus type 1 protease (Human immunodeficiency virus 1, UniProt Q72874); assay: Binding affinity for HIV protease
[2] = Translatory activity was evaluated as ratio of Ki and IC90 *10e-5; type: functional
[3] = system: Human immunodeficiency virus 1; assay: Inhibitory activity was determined by measuring accumulation of viral RNA transcript after infection of cells with HIV-1; type: functional

Nc1n[nH]c2ccc(CN3C(=O)N(Cc4ccc5[nH]nc(N)c5c4)[C@H](Cc4ccccc4)[C@H](O)[C@@H](O)[C@H]3Cc3ccccc3)cc12
Ki [1]: < 0.01 nM

Cc1ccc(C[C@@H]2[C@H](O)[C@@H](O)[C@@H](Cc3ccc(C)cc3)N(Cc3ccc4[nH]nc(N)c4c3)C(=O)N2Cc2ccc3[nH]nc(N)c3c2)cc1
Translation [2]: 8
Ki [1]: 0.061 nM
IC90 [3]: 780 nM

Cc1cc(C)cc(C[C@@H]2[C@H](O)[C@@H](O)[C@@H](Cc3cc(C)cc(C)c3)N(Cc3ccc4[nH]nc(N)c4c3)C(=O)N2Cc2ccc3[nH]nc(N)c3c2)c1
Translation [2]: 12
Ki [1]: 0.067 nM
IC90 [3]: 540 nM

CC(C)c1ccc(C[C@@H]2[C@H](O)[C@@H](O)[C@@H](Cc3ccc(C(C)C)cc3)N(Cc3ccc4[nH]nc(N)c4c3)C(=O)N2Cc2ccc3[nH]nc(N)c3c2)cc1
Translation [2]: 46
Ki [1]: 0.19 nM
IC90 [3]: 410 nM

Cc1cccc(C[C@@H]2[C@H](O)[C@@H](O)[C@@H](Cc3cccc(C)c3)N(Cc3ccc4[nH]nc(N)c4c3)C(=O)N2Cc2ccc3[nH]nc(N)c3c2)c1
Translation [2]: 1.5
Ki [1]: 0.011 nM
IC90 [3]: 740 nM

Nc1[nH]nc2ccc(CN3C(=O)N(Cc4ccc5n[nH]c(N)c5c4)[C@H](Cc4ccccc4)[C@H](O)[C@@H](O)[C@H]3Cc3ccccc3)cc12
Translation [2]: < 0.36
IC90 [3]: 2760 nM

CC(C)(C)c1cccc(C[C@@H]2[C@H](O)[C@@H](O)[C@@H](Cc3cccc(C(C)(C)C)c3)N(Cc3ccc4[nH]nc(N)c4c3)C(=O)N2Cc2ccc3[nH]nc(N)c3c2)c1
Translation [2]: 54
Ki [1]: 0.21 nM
IC90 [3]: 390 nM

CCc1ccc(C[C@@H]2[C@H](O)[C@@H](O)[C@@H](Cc3ccc(CC)cc3)N(Cc3ccc4[nH]nc(N)c4c3)C(=O)N2Cc2ccc3[nH]nc(N)c3c2)cc1
Translation [2]: 23
Ki [1]: 0.068 nM
IC90 [3]: 300 nM

Cc1ccc(C)c(C[C@@H]2[C@H](O)[C@@H](O)[C@@H](Cc3cc(C)ccc3C)N(Cc3ccc4[nH]nc(N)c4c3)C(=O)N2Cc2ccc3[nH]nc(N)c3c2)c1
Translation [2]: 11
Ki [1]: 0.034 nM
IC90 [3]: 300 nM

CCCCc1ccc(C[C@@H]2[C@H](O)[C@@H](O)[C@@H](Cc3ccc(CCCC)cc3)N(Cc3ccc4[nH]nc(N)c4c3)C(=O)N2Cc2ccc3[nH]nc(N)c3c2)cc1
Translation [2]: 94
Ki [1]: 0.17 nM
IC90 [3]: 180 nM

CCCc1ccc(C[C@@H]2[C@H](O)[C@@H](O)[C@@H](Cc3ccc(CCC)cc3)N(Cc3ccc4[nH]nc(N)c4c3)C(=O)N2Cc2ccc3[nH]nc(N)c3c2)cc1
Translation [2]: 23
Ki [1]: 0.068 nM
IC90 [3]: 290 nM

CC(C)(C)c1ccc(C[C@@H]2[C@H](O)[C@@H](O)[C@@H](Cc3ccc(C(C)(C)C)cc3)N(Cc3ccc4[nH]nc(N)c4c3)C(=O)N2Cc2ccc3[nH]nc(N)c3c2)cc1
Translation [2]: 190
Ki [1]: 0.19 nM
IC90 [3]: 100 nM
